Usually IC50 stands for the concentration needed to halve the response being measured.

The text below walks through data of article PMC5086919, “Antileukemic Scalarane Sesterterpenoids and Meroditerpenoid from Carteriospongia (Phyllospongia) sp., Induce Apoptosis via Dual Inhibitory Effects on Topoisomerase II and Hsp90” (Scientific Reports, 2016).

Each structure is given as a SMILES string. In brackets after ≈: the same amount, converted by molar mass. Where two headings read alike, the source gives them in different places.

Experiment [1] has as its system Sup-T1 cells. The experiment in a line: MTT antiproliferative assay, lymphoma Sup-T1 cells. The note with it: Homo sapiens, SUP-T1, 72 h, read-out: IC50, cytotoxicity, Lymphoma Sup-T1. In general terms: Tetrazolium assays rely on reduction of a dye to a coloured formazan, in cell work by metabolically active cells.
Experiment [2] has as its system Hsp90 client proteins in Molt 4 cells. The experiment in a line: Western blot of Hsp90, Hsp70, HSF 1 and Hsp90 client proteins. The experiment is classed as cell-based, human. The note with it: 0.0625 μg/mL, different time intervals. As for the experimental part: It was also reported that the induction of Hsp70 is the biomarker of Hsp90 with N-terminal inhibition. Aiming to understand the relation between Hsp90 function and the expression of Hsp70 and 90 clients, we treated Molt 4 cells with 1 (0.0625 μg/mL) for different time intervals. […] The majority of Hsps accumulate in subcellular localizations that determine whether a cell is going to die or differentiate. Erythroblasts with accumulated nuclear Hsp70 continued their differentiation process during the formation of red blood cells. Furthermore, we identified the localization of Hsp70 in response to 1 treatment using immunofluorescence by confocal microscope.
(§1) Cell lysates were prepared by treating the cells for 30 min in RIPA lysis buffer, 1% Nonidet P-40, 0.5% sodium deoxycholate, 0.1% sodium dodecyl sulphate (SDS), 1 mM sodium orthovanadate, 100 μg/mL phenylmethylsulfonyl fluoride and 30 μg/mL aprotinin) (all chemicals were from Sigma)[38]. The lysates were centrifuged at 20,000 × g for 30 min, and the protein concentration in the supernatant was determined using a BCA protein assay kit (Pierce). Equal amounts of proteins were respectively separated by 7.5%, 10% or 12% of SDS-polyacrylamide gel electrophoresis and then were electrotransferred to a PVDF membrane. The membrane was blocked with a solution containing 5% non-fat dry milk TBST buffer (20 mM Tris-HCl, pH 7.4, 150 mM NaCl and 0.1% Tween 20) for 1 h and washed with TBST buffer. The protein expressions were monitored by immunoblotting using specific antibodies. These proteins were detected by an enhanced chemiluminescence kit (Pierce).

The subject of experiment [3] is Molt 4 cells. Kind of experiment: Intracellular Ca2+ accumulation, Fluo 3 flow cytometry. The note with it: 0.0625 μg/mL. The experiment is classed as cell-based, human. As for the experimental part: (§2) Oxidative stress is manifested by ROS overexpression and cannot be balanced by the available antioxidant machinery. Compound 1 can damage the integrity of mitochondria, which are the major production sites of the superoxide anion, […]. The induction of the intracellular formation of ROS by 1 was determined with a carboxyl derivative of fluorescein, carboxy-H2DCFDA dye using flow cytometric analysis. […] In addition, ROS generation could induce ER stress leading to mitochondria-related apoptosis. To further investigate if ER stress is involved in the apoptotic effect induced by 1, Western blot analysis was used to determine the expression of ER stress-related proteins. […] Furthermore, the effect of 1 on the release of intracellular Ca^2+, was evaluated using fluorescent calcium indicator, Fluo 3. […] The induction of the typical executor caspases-3 and −7, as well as γH2AX, was also observed using Western blot analysis (Fig. 7D). To confirm the induction of DNA damage by 1 in Molt 4 cells, a comet assay under neutral electrophoresis condition was utilized. The effect of 1 (0.0625 μg/mL) at different time intervals (0, 3, 6 and 9 h) on the level of nuclear DNA integrity was determined. […] The DNA migration was represented by the induction of DSBs in a time-dependent increase, as indicated by the abnormal tails’ sizes in the comet assay.
(§3) These assays were performed as described previously. […] In brief, the treated cells were labeled with a specific fluorescent dye for 30 min. After labeling, cells were washed with PBS and resuspended in PBS at a concentration of 1 × 10^6 cells/mL before analysis via flow cytometry.

Experiment [4] deals with Molt 4 cells. The experiment in a line: ROS generation, carboxy-H2DCFDA flow cytometry. It is filed as cell-based, human. The note with it: 0.0625 μg/mL. As for the experimental part: as §2, §3
Experiment [5] concerns Molt 4 cells. Kind of experiment: Neutral comet assay for DNA double-strand breaks. It is filed as cell-based, human. The note with it: 0.0625 μg/mL; 0, 3, 6 and 9 h; neutral electrophoresis. The procedure:
Oxidative stress is manifested by ROS overexpression and cannot be balanced by the available antioxidant machinery. Compound 1 can damage the integrity of mitochondria, which are the major production sites of the superoxide anion, […]. The induction of the intracellular formation of ROS by 1 was determined with a carboxyl derivative of fluorescein, carboxy-H2DCFDA dye using flow cytometric analysis. […] In addition, ROS generation could induce ER stress leading to mitochondria-related apoptosis. To further investigate if ER stress is involved in the apoptotic effect induced by 1, Western blot analysis was used to determine the expression of ER stress-related proteins. […] Furthermore, the effect of 1 on the release of intracellular Ca^2+, was evaluated using fluorescent calcium indicator, Fluo 3. […] The effect of 1 (0.0625 μg/mL) at different time intervals (0, 3, 6 and 9 h) on the level of nuclear DNA integrity was determined. […]
The assay was carried out using a CometAssayTM Kit (Trevigen, Gaithersburg, MD, USA) following the manufacturer’s protocol for the neutral Comet assay. […] The fluorescence images were analyzed using the TriTek Comet Image program to circumscribe the “head” and the “tail” regions of each comet and the integrated fluorescence values of each defined area were recorded. The comet length was measured from the trailing edge of the nucleus to the leading edge of the tail. […]

Experiment [6] deals with Molt 4 cells. The experiment in a line: MTT antiproliferative assay, leukemia Molt 4 cells. It is filed as cell-based. The note with it: Homo sapiens.
Experiment [7] has as its system T-47D cells. Kind of experiment: MTT antiproliferative assay, breast cancer T-47D cells. To be noted: Homo sapiens, T47D, 72 h, read-out: IC50, cytotoxicity, Breast T-47D.
Excerpt: Several cancer cell lines including leukemia K562, Molt 4, and HL 60 cells, prostate cancer LNCaP cells, colon cancer DLD-1 cells and breast cancer T-47D cells were used to evaluate the antiproliferative activity.
The cell lines were obtained from the American Type Culture Collection (ATCC, Manassas, VA, USA). […] Dimethyl sulfoxide (DMSO), 3-(4,5-dimethylthiazol-2-yl)-2,5-diphenyl-tetrazolium bromide (MTT) and all other chemicals were purchased from Sigma-Aldrich (St. Louis, MO, USA).
Experiment [8] relates to γH2AX in Molt 4 cells. The experiment in a line: Western blot of γH2AX (DNA damage biomarker). The experiment is classed as cell-based, human. The note with it: 0, 0.0625, 0.125 and 0.25 μg/mL, 24 h.
Excerpt: The ability of Topo II to generate DNA damage in the presence of Topo II-targeting agents led to the hypothesis that an important determinant of drug sensitivity was related to the overall level of Topo II[17]. […] Such findings encouraged us to evaluate the effect of the isolates on Topo II activity. In order to confirm whether the DNA damage-induced by the isolated sesterterpenoids involved the inhibition of Topo II activity, a cell-free DNA cleavage assay using an enzyme-mediated negatively supercoiled pHOT1 plasmid DNA was applied. […] These marine terpenoids suppressed Topo II activity, resulting in the inhibition of supercoiled DNA relaxation in a dose-dependent manner (Fig. 5A). […] To determine whether the apoptotic mechanism of these compounds affects γH2AX (as a biomarker of DNA damage) induction, Western blot analysis was employed to examine the activation of γH2AX.
as §1

Experiment [9] has as its system Molt 4 cells. The experiment in a line: MMP disruption, JC-1 staining flow cytometry. The experiment is classed as cell-based, human. To be noted: 0, 0.0625, 0.125 and 0.25 μg/mL, 24 h. The procedure:
as §3
(Flow cytometry measures light scatter and fluorescence of single cells or particles in a stream.)

With `CC[C@@]1(C)CCC[C@]2(C)[C@H]3C[C@@H](OC(=O)C[C@@H](C)O)[C@]4(C)[C@@H](C=O)C(C(C)=O)=CC[C@H]4[C@]3(C)CC[C@@H]12` (relative stereo) [Compound 1, 12β-(3′β-hydroxybutanoyloxy)-20,24-dimethyl-24-oxo-scalara-16-en-25-al], the IC50 in [1] was found to be 0.13 µg/mL (≈ 0.26 µM); in [6] (72 h, read-out: IC50, cytotoxicity, Leukemia Molt 4) it was 0.01 µg/mL; in [6] (molar value in brackets, read-out: antiproliferative activity (IC50), Molt 4), 19.1 nM; in [7], 2.19 µg/mL (≈ 4.37 µM). The “expression of HSF 1 protein” value in [2] is reported as “attenuated”. The “expression of Hsp70” value in experiment [2] is on record as “increased in a time-dependent manner”. In experiment [2], the “expression of Hsp90 client proteins (p70S6k, NFκB, Raf-1, p-GSK3β, MEK 1, XIAP, MDM 2, Rb2, CDK4, HIF 1, HSF1)” value was “suppression of Hsp90 client proteins was observed”. The “expression of Hsp90 protein” value in experiment [2] is reported as “did not notably attenuate the expression of Hsp90 protein”. Also, the “increase in intracellular Ca2+ accumulation compared to MFI of control” value in experiment [3] (0.5 h) is 1.03 folds; in [3] (1 h) it was 1.05 folds; in experiment [3] (2 h), 1.06 folds; in experiment [3] (3 h), 1.37 folds; in [3] (6 h) it was 2.41 folds; in [3] (18 h) it was 1.06 folds. The “increase in ROS levels compared with MFI of control” value is listed as 2.09 fold in experiment [4] (0.5 h), 1.51 fold in [4] (1 h), 1.06 fold in experiment [4] (2 h) and 1.01 fold in experiment [4] (3 h). Also, the “DNA migration (DSBs), comet assay” value in [5] is “increased the degree of DNA migration”. Moreover, in experiment [8], the “expression of γH2AX” value is listed as “significantly enhanced the expression of γH2AX in a dose-dependent manner”. Besides, the mitochondrial membrane potential result in experiment [9] is “disruption in mitochondrial membrane potential”.
